Where “and” joins values, the source holds several entries; their conditions need not be identical. Equal entries are not always repeated.
Experiments:
[1] = target: 5-hydroxytryptamine receptor 2A (Rattus norvegicus, UniProt P14842)
[2] = target: Adenylate cyclase type 2 (Rattus norvegicus, UniProt P26769)
[3] = target: D(2) dopamine receptor (Rattus norvegicus, UniProt P61169)
[4] = target: D(1A) dopamine receptor (Rattus norvegicus, UniProt P18901)
Sequence of D(1A) dopamine receptor (P18901 whole entry): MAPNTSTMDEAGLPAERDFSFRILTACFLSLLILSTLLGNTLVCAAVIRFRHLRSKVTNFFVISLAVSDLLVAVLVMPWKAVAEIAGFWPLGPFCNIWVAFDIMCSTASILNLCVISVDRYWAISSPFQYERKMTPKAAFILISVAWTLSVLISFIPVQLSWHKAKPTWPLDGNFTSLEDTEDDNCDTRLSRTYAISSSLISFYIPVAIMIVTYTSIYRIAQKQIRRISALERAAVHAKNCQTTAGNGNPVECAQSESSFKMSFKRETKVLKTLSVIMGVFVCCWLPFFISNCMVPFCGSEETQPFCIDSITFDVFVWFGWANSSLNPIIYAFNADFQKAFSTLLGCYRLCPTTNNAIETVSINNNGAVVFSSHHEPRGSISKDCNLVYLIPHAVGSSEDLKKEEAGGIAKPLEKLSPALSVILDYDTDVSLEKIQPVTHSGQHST

Sequence of D(2) dopamine receptor (P61169 whole entry): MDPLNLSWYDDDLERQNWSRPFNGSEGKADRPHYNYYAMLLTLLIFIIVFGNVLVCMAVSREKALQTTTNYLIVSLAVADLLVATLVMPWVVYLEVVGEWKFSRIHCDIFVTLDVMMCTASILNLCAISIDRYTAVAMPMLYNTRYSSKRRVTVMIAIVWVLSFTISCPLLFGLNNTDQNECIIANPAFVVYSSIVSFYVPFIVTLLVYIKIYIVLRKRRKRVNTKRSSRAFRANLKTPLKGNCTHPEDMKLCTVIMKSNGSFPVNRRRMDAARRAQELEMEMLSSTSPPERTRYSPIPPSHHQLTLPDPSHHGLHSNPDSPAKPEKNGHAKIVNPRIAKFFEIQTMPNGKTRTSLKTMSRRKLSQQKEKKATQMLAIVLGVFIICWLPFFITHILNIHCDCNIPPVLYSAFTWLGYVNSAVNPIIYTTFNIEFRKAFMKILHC
Sequence of Adenylate cyclase type 2 (P26769 whole entry): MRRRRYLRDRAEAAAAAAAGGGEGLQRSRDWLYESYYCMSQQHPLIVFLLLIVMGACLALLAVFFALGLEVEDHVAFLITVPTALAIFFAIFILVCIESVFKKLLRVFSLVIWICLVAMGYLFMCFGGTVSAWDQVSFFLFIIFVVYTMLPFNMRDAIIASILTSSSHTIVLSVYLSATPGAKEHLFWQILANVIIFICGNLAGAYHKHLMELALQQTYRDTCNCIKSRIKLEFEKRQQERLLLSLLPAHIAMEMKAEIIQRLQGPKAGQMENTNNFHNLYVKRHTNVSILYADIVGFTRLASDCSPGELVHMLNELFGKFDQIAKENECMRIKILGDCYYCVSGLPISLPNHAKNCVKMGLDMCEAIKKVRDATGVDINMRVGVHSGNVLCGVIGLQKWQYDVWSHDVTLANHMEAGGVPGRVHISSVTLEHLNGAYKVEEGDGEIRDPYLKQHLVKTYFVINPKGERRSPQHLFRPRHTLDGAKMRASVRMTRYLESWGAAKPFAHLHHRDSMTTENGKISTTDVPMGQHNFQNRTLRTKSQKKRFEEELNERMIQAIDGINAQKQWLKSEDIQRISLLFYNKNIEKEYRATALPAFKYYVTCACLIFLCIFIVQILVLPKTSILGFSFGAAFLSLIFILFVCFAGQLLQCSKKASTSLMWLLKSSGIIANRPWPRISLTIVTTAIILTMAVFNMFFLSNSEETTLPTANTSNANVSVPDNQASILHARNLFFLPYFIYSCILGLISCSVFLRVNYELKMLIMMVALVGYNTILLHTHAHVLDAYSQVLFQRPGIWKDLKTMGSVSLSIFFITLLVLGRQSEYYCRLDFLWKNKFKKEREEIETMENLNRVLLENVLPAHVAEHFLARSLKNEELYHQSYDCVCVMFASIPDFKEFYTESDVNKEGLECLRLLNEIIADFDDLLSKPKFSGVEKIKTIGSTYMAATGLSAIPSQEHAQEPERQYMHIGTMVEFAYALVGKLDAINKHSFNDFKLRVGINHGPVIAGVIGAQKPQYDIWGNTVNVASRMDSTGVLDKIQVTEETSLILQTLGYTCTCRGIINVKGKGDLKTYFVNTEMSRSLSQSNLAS
Sequence of 5-hydroxytryptamine receptor 2A (P14842 whole entry): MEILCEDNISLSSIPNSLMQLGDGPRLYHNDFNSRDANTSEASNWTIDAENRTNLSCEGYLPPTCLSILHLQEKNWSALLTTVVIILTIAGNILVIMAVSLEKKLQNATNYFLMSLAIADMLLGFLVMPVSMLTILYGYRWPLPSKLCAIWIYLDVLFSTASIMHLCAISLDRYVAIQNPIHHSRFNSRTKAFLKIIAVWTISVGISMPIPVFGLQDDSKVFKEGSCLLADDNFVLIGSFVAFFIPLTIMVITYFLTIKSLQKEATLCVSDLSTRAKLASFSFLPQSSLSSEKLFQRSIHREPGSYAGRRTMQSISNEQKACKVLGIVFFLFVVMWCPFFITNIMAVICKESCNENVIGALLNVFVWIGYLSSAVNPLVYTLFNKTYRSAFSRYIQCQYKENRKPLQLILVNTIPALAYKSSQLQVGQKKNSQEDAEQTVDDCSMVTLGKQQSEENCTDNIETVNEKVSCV

| Compound | Ki [1] [nM] | Ki [2] [nM] | Ki [3] | Ki [4] [nM] |
| --- | --- | --- | --- | --- |
| Oc1cc2c(cc1O)[C@@H](c1ccccc1)CNCC2 | > 10000 | 415 |  |  |
| CN1CCc2cc(Cl)c(O)cc2[C@@H](c2cccc3ccoc23)C1 |  | 2.8 | 898 nM and 988 nM |  |
| CN1CCc2cc([N+](=O)[O-])c(O)cc2C(c2cccc3c2OCC3)C1 (stereo not drawn) [CAS_164252] | 355 | 9.1 | > 10000 nM | 5.8 |
| CN1CCc2cc(Cl)c(O)cc2C(c2cccc3c2OCC3)C1 (stereo not drawn) [NSC_132421] | 4.5 | 2.2 | 942 nM | 0.17 |
| CN1CCc2cc(Cl)c(O)cc2[C@@H](c2ccccc2)C1 [SCH 23390,R(+)] |  | 39.9 |  |  |
